Laboratory results taken from patent US20250230193A1, “CYCLIC COMPOUND HAVING SELECTIVE KRAS INHIBITORY EFFECT ON HRAS AND NRAS” (CHUGAI SEIYAKU KABUSHIKI KAISHA, priority 2022, published 2025).
Where a SMILES comes first, the peptide text is derived from it. Bridges are numbered along the chain shown (N, C = ends). [ ]: non-standard residue; d: D form. The star is where a group is joined. hPhe(3,5-F2-4-CF3) = N[C@@H](CCc1cc(F)c(C(F)(F)F)c(F)c1)C(=O)O; hPhe(3-Cl-4-CF3) = N[C@@H](CCc1ccc(C(F)(F)F)c(Cl)c1)C(=O)O; NPrPhe(4-CF3) = CCCN[C@@H](Cc1ccc(C(F)(F)F)cc1)C(=O)O; NMeGly(cPent) = CN[C@H](C(=O)O)C1CCCC1; Pro(4,4-F2) = O=C(O)[C@@H]1CC(F)(F)CN1; NMeD = CN[C@@H](CC(=O)O)C(=O)O; NMeL = CN[C@@H](CC(C)C)C(=O)O; αMeS = C[C@](N)(CO)C(=O)O; Morpholide = C1CN(*)CCO1; Aze = O=C(O)[C@@H]1CCN1; Ac4c = NC1(C(=O)O)CCC1; Sar = CNCC(=O)O; Allyl = C=CC*

Assays:
[1] = target: GDP-bound NRAS wild-type protein (Homo sapiens, UniProt P01111); assay: Binding to NRAS by surface plasmon resonance (SPR), Single Cycle Kinetics; details: for NRAS/KRAS (ratio of KD value with respect to NRAS to KD value with respect to KRAS) / NRAS/KRAS (ratio of KD value for NRAS to KD value for KRAS): GDP-bound NRAS wild-type vs GDP-bound KRAS wild-type
Sequence of GDP-bound NRAS wild-type protein (P01111 whole entry): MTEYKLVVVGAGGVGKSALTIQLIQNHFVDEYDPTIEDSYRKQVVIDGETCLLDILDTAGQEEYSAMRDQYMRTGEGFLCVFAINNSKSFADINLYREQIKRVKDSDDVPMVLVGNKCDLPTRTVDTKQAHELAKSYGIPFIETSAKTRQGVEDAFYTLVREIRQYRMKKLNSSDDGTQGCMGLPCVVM

[2] = target: GDP-bound HRAS wild-type protein (Homo sapiens, UniProt P01112); assay: Binding to HRAS by surface plasmon resonance (SPR), Single Cycle Kinetics; details: for HRAS/KRAS (ratio of KD value with respect to HRAS to KD value with respect to KRAS) / HRAS/KRAS (ratio of KD value for HRAS to KD value for KRAS): GDP-bound HRAS wild-type vs GDP-bound KRAS wild-type
Sequence of GDP-bound HRAS wild-type protein (P01112 whole entry): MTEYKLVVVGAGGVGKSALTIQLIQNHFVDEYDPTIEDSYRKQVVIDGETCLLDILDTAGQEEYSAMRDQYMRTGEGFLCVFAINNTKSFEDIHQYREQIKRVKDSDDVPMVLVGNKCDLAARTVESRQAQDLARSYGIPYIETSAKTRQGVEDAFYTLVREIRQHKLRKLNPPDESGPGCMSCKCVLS

[3] = KD ratio NRAS/KRAS, class symbols
[4] = KD ratio HRAS/KRAS, class symbols

`C=CC[C@H]1C(=O)N[C@@H]([C@@H](C)CC)C(=O)N(C)CC(=O)N(C)[C@H]2CCCCN(C2=O)[C@@H](Cc2ccc(C(F)(F)F)cc2)C(=O)N(C)CC(=O)N[C@@H](CCc2cc(F)c(C(F)(F)F)c(F)c2)C(=O)N2C[C@H](OCC)C[C@H]2C(=O)NC2(CCC2)C(=O)N(C)[C@@H](C2CCCC2)C(=O)N(C)[C@H](C(=O)N2CCOCC2)CC(=O)N1C` [PP0710] was tested, and the “NRAS/KRAS (ratio of KD value with respect to GDP-bound NRAS wild-type protein to KD value with respect to KRAS)” value ([1]; KD ratio NRAS/KRAS, SPR) was “C (A compound having a KD ratio of 0.1 or more and less than 3 is denoted as C)” and the “HRAS/KRAS (ratio of KD value with respect to GDP-bound HRAS wild-type protein to KD value with respect to KRAS)” value ([2]; KD ratio HRAS/KRAS, SPR) was “B (a compound having 3 or more and less than 10 is denoted as B)”.

For `CCO[C@@H]1C[C@H]2C(=O)NC3(CC(C)(C)C3)C(=O)N(C)[C@@H](C3CCCC3)C(=O)N(C)[C@H](C(=O)N(C)C)CC(=O)N(C)[C@@H](C)C(=O)N[C@@H]([C@@H](C)CC)C(=O)N(C)CC(=O)N(C)[C@H]3CCCCCN(C3=O)[C@@H](Cc3ccc(C(F)(F)F)cc3)C(=O)N(C)CC(=O)N[C@@H](CCc3cc(F)c(C(F)(F)F)c(F)c3)C(=O)N2C1` [PP0723], the “NRAS/KRAS (ratio of KD value with respect to GDP-bound NRAS wild-type protein to KD value with respect to KRAS)” value ([1]; KD ratio NRAS/KRAS, SPR) was “B (a compound having 3 or more and less than 10 is denoted as B)” and the “HRAS/KRAS (ratio of KD value with respect to GDP-bound HRAS wild-type protein to KD value with respect to KRAS)” value ([2]; KD ratio HRAS/KRAS, SPR) was “B (a compound having 3 or more and less than 10 is denoted as B)”.

`CCO[C@@H]1C[C@H]2C(=O)NC3(CC(C)(C)C3)C(=O)N(C)[C@@H](C(CC)CC)C(=O)N(C)[C@H](C(=O)N3CCCC3)CC(=O)N(C)[C@@H](C)C(=O)N[C@@H]([C@@H](C)CC)C(=O)N(C)CC(=O)N(C)[C@H]3C/C=C\CCN(C3=O)[C@@H](Cc3ccc(C(F)(F)F)cc3)C(=O)N(C)CC(=O)N[C@@H](CCc3ccc(Cl)c(Cl)c3)C(=O)N2C1` [PP2178] was tested, and the “NRAS/KRAS (ratio of KD value with respect to NRAS to KD value with respect to KRAS)” value ([1]; SPR) was “AA (a compound having 20 or more is denoted as AA)” and the “HRAS/KRAS (ratio of KD value with respect to HRAS to KD value with respect to KRAS)” value ([2]; SPR) was “A (a compound having 10 or more and less than 20 is denoted as A)”.

With `CC[C@H](C)[C@@H]1NC(=O)[C@H](CC(C)C)N(C)C(=O)C[C@@H](C(=O)N(C)C)N(C)C(=O)[C@H](C2CCCC2)N(C)C(=O)C2(CC(C)(C)C2)NC(=O)[C@@H]2C[C@H](C)CN2C(=O)[C@H](CCc2ccc(C(F)(F)F)c(OC)c2)NC(=O)CN(C)C(=O)[C@H](Cc2ccc(C)cc2)N2CC/C=C\C[C@@H](C2=O)N(C)C(=O)[C@@H]2CCCN2C1=O` [PP2409] the “NRAS/KRAS (ratio of KD value with respect to NRAS to KD value with respect to KRAS)” value ([1]; SPR) was “A (a compound having 10 or more and less than 20 is denoted as A)” and the “HRAS/KRAS (ratio of KD value with respect to HRAS to KD value with respect to KRAS)” value ([2]; SPR) was “B (a compound having 3 or more and less than 10 is denoted as B)”.

With `CCCN1C(=O)CN(C)C(=O)CNC(=O)[C@H]([C@@H](C)CC)NC(=O)[C@H](CC(C)C)N(C)C(=O)C[C@@H](C(=O)N(C)C)NC(=O)[C@H](C2CCCC2)N(C)C(=O)C2(CCC2)NC(=O)[C@@H]2CC(F)(F)CN2C(=O)[C@H](CCc2ccc(C(F)(F)F)c(Cl)c2)NC(=O)CN(C)C(=O)[C@@H]1Cc1ccc(C(F)(F)F)cc1` [PP0364] ([NMeL]IG[Sar][NPrPhe(4-CF3)][Sar][hPhe(3-Cl-4-CF3)][Pro(4,4-F2)][Ac4c][NMeGly(cPent)]D-NMe2; lactam N-11) the “NRAS/KRAS (ratio of KD for GDP-bound NRAS wild-type to KD for KRAS)” value ([1]; KD ratio NRAS/KRAS, SPR) was “B (a compound having 3 or more and less than 10 is denoted as B)” and the “HRAS/KRAS (ratio of KD for GDP-bound HRAS wild-type to KD for KRAS)” value ([2]; KD ratio HRAS/KRAS, SPR) was “B (a compound having 3 or more and less than 10 is denoted as B)”.

With `CCC(CC)[C@H]1C(=O)N(C)[C@H](C(=O)N(C)C)CC(=O)N(C)[C@@H](COC)C(=O)N[C@@H]([C@@H](C)CC)C(=O)N(C)CC(=O)N(C)[C@H]2C/C=C\CCN(C2=O)[C@@H](Cc2ccc(C(F)(F)F)cc2)C(=O)N(C)CC(=O)N[C@@H](CCc2cc(F)c(C(F)(F)F)c(F)c2)C(=O)N2CC3(CC3)C[C@H]2C(=O)NC2(CC(C)(C)C2)C(=O)N1C` [PP2961] the “NRAS/KRAS (ratio of KD value with respect to GDP-bound NRAS wild-type protein to KD value with respect to KRAS)” value [1, 3] was “AA (a compound having 20 or more is denoted as AA)” and the “HRAS/KRAS (ratio of KD value with respect to GDP-bound HRAS wild-type protein to KD value with respect to KRAS)” value [2, 4] was “A (a compound having 10 or more and less than 20 is denoted as A)”.

With `CCO[C@@H]1C[C@H]2C(=O)NC3(CCC3)C(=O)N(C)[C@@H](C3CCCC3)C(=O)N(C)[C@H](C(=O)N3CCCCC3)CC(=O)N(C)[C@H]3CCC/C=C/c4ccc(cc4)C[C@@H](C(=O)N(C)CC(=O)N[C@@H](CCc4cc(F)c(C(F)(F)F)c(F)c4)C(=O)N2C1)N1CC/C=C\C[C@@H](C1=O)N(C)C(=O)CN(C1CC1)C(=O)[C@H]([C@@H](C)CC)NC3=O` [PP2954] the “NRAS/KRAS (ratio of KD value with respect to GDP-bound NRAS wild-type protein to KD value with respect to KRAS)” value [1, 3] was “A (a compound having 10 or more and less than 20 is denoted as A)” and the “HRAS/KRAS (ratio of KD value with respect to GDP-bound HRAS wild-type protein to KD value with respect to KRAS)” value [2, 4] was “A (a compound having 10 or more and less than 20 is denoted as A)”.

With `CCC[C@H]1C(=O)N[C@@H](C2CCOCC2)C(=O)N(C)CC(=O)N(C)[C@H]2C/C=C\CCN(C2=O)[C@@H](Cc2ccc(C)cc2)C(=O)N(C)CC(=O)N[C@@H](CCc2ccc(C(F)(F)F)c(Cl)c2)C(=O)N2C[C@H](OCC)C[C@H]2C(=O)NC2(CC(C)(C)C2)C(=O)N(C)[C@@H](C2CCCC2)C(=O)N(C)[C@H](C(=O)N(C)C)CC(=O)N1C` [PP3002] the “NRAS/KRAS (ratio of KD value with respect to GDP-bound NRAS wild-type protein to KD value with respect to KRAS)” value ([1]; KD ratio NRAS/KRAS, SPR, GDP-bound wild-type proteins) was “A (a compound having 10 or more and less than 20 is denoted as A)” and the “HRAS/KRAS (ratio of KD value with respect to GDP-bound HRAS wild-type protein to KD value with respect to KRAS)” value ([2]; KD ratio HRAS/KRAS, SPR, GDP-bound wild-type proteins) was “A (a compound having 10 or more and less than 20 is denoted as A)”.

With `CCO[C@@H]1C[C@H]2C(=O)NC3(CC(F)(F)C3)C(=O)N(C)[C@@H](C3CCCC3)C(=O)N(C)[C@H](C3CCC3)CC(=O)N(C)[C@@H](CC3CC3)C(=O)N[C@@H]([C@@H](C)CC)C(=O)N(C)CC(=O)N(C)[C@H]3C/C=C\CCN(C3=O)[C@@H](Cc3ccc(C(F)(F)F)cc3)C(=O)N(C)CC(=O)N[C@@H](CCc3cc(F)c(C(F)(F)F)c(F)c3)C(=O)N2C1` [PP1639] the “NRAS/KRAS (ratio of KD value for NRAS to KD value for KRAS)” value ([1]; SPR) was “A (a compound having 10 or more and less than 20 is denoted as A)” and the “HRAS/KRAS (ratio of KD value for HRAS to KD value for KRAS)” value ([2]; SPR) was “A (a compound having 10 or more and less than 20 is denoted as A)”.

For `CCO[C@@H]1C[C@H]2C(=O)NC3(CC(C)(C)C3)C(=O)N(C)[C@@H](C3CCCC3)C(=O)N(C)[C@H](C(=O)N(C)CC)CC(=O)N(C)[C@@H](CC)C(=O)N[C@@H]([C@@H](C)CC)C(=O)N(C)CC(=O)N(C)[C@H]3C/C=C\CCN(C3=O)[C@@H](Cc3ccc(C(F)(F)F)cc3)C(=O)N(C)CC(=O)N[C@@H](CCc3ccc(C(F)(F)F)c(OC)c3)C(=O)N2C1` [PP1653], the “NRAS/KRAS (ratio of KD value for NRAS to KD value for KRAS)” value ([1]; SPR) was “A (a compound having 10 or more and less than 20 is denoted as A)” and the “HRAS/KRAS (ratio of KD value for HRAS to KD value for KRAS)” value ([2]; SPR) was “A (a compound having 10 or more and less than 20 is denoted as A)”.

For `C=CCOC[C@]1(C)NC(=O)[C@@H]2CCCN2C(=O)[C@H](CCc2cc(F)c(C(F)(F)F)c(F)c2)NC(=O)CN(C)C(=O)[C@H](Cc2ccc(C(F)(F)F)cc2)N(CCC)C(=O)CN(C)C(=O)[C@@H]2CCN2C(=O)[C@H]([C@@H](C)CC)NC(=O)[C@H](CC(C)C)N(C)C(=O)C[C@@H](C(=O)N2CCOCC2)N(C)C(=O)[C@H](C2CCCC2)N(C)C1=O` [PP0780] ([NMeL]I[Aze][Sar][NPrPhe(4-CF3)][Sar][hPhe(3,5-F2-4-CF3)]P[αMeS](Allyl)[NMeGly(cPent)][NMeD]-Morpholide; lactam N-11), the “NRAS/KRAS (ratio of KD value with respect to GDP-bound NRAS wild-type protein to KD value with respect to KRAS)” value ([1]; KD ratio NRAS/KRAS, SPR) was “B (a compound having 3 or more and less than 10 is denoted as B)” and the “HRAS/KRAS (ratio of KD value with respect to GDP-bound HRAS wild-type protein to KD value with respect to KRAS)” value ([2]; KD ratio HRAS/KRAS, SPR) was “B (a compound having 3 or more and less than 10 is denoted as B)”.
